Some test systems named below: ACHN renal; COLO 205 colon; HCC-2998 colon; HCT-15 colon; K-562 leukemia; M14 melanoma; MCF7 breast; NCI-H460 lung; OVCAR-8 ovarian; RPMI-8226 leukemia; SK-OV-3 ovarian; SW-620 colon; T-47D breast; TK-10 renal; U251 CNS; UACC-257 melanoma; SNB-75 CNS; UO-31 renal.
What all share (assay): DTP human tumour cell line panel, 48 h

The structures appear in SMILES notation.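 Values below derive from 48-hour exposures of cells grown in 96-well plates, with endpoints linearly interpolated between the two concentrations bracketing the appropriate inhibition level. GI50 = concentration required for 50% inhibition of growth. TGI is the concentration that stops growth completely.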

As to `Cc1cccc2nc(-c3ccccc3)cc(=O)n12`, the TGI with ACHN renal, in the experiment with COLO 205 colon, in the experiment with HCC-2998 colon, in the experiment with HCT-15 colon, with K-562 leukemia and in the experiment on M14 melanoma was greater than 100 µM throughout. The concentration for total growth inhibition (TGI) in the experiment with MCF7 breast, with NCI-H460 lung, with OVCAR-8 ovarian, in the experiment with RPMI-8226 leukemia, with SK-OV-3 ovarian and with SW-620 colon was greater than 100 µM throughout. Also, the TGI with T-47D breast, in the experiment with TK-10 renal, in the experiment on U251 CNS and in the experiment on UACC-257 melanoma was greater than 100 µM each time.
As for `COc1ccccc1C[C@@H]1OC2(C=CC(=O)CC2SC(=O)c2ccccc2)O[C@H]1Cc1ccccc1OC` (some centres not stated), the TGI in the experiment with ACHN renal was found to be 3.5 µM; in the experiment with COLO 205 colon, 3.16 µM; with HCT-15 colon it was 4.75 µM; with K-562 leukemia, 27.3 µM; with M14 melanoma, 3.26 µM; in the experiment on MCF7 breast, 2.36 µM. The TGI in the experiment on NCI-H460 lung was 7.87 µM; in the experiment on RPMI-8226 leukemia it was 0.943 µM; with SK-OV-3 ovarian, 5.04 µM; in the experiment with SNB-75 CNS, 3.28 µM; in the experiment with SW-620 colon, 1.35 µM; with T-47D breast, 5.64 µM. Moreover, the TGI with TK-10 renal came out at 5.07 µM; in the experiment with U251 CNS, 2.81 µM; in the experiment with UACC-257 melanoma, 3.02 µM; with UO-31 renal, 2.54 µM.
As for `COc1cc2c(/C=C3/C(=O)Nc4ccc(O)cc43)c(Cl)n(Cc3ccccc3)c2cc1C`, the TGI with ACHN renal was 35.3 µM; with HCC-2998 colon, 0.799 µM; in the experiment on HCT-15 colon, greater than 22.6 µM; in the experiment on K-562 leukemia, greater than 100 µM; with M14 melanoma, 11.8 µM; in the experiment with NCI-H460 lung it was greater than 43.4 µM. Besides, the TGI with OVCAR-8 ovarian is 12.2 µM; in the experiment with RPMI-8226 leukemia, 6.74 µM; with SK-OV-3 ovarian, greater than 60.2 µM; in the experiment on SNB-75 CNS it was greater than 100 µM; in the experiment with SW-620 colon, 19.9 µM; in the experiment on T-47D breast, greater than 74.8 µM. In addition, the concentration for total growth inhibition (TGI) in the experiment with TK-10 renal is greater than 40.7 µM; with U251 CNS, greater than 42.4 µM; in the experiment on UACC-257 melanoma, greater than 56.5 µM; in the experiment on UO-31 renal, greater than 100 µM. In the experiment on HCC-2998 colon, the GI50 is 0.201 µM.
On to `CCOc1cccc(C=Nc2ccccc2SSc2ccccc2N=Cc2cccc(OCC)c2O)c1O`, for which the TGI in the experiment on ACHN renal is 29.3 µM; with COLO 205 colon, 12.4 µM; with HCC-2998 colon it was 44.1 µM; in the experiment with HCT-15 colon, 12.9 µM; in the experiment on K-562 leukemia it was 27.6 µM; in the experiment on M14 melanoma, 19.4 µM. Moreover, the TGI in the experiment with NCI-H460 lung came to 20.1 µM; in the experiment with OVCAR-8 ovarian, 8.33 µM; with RPMI-8226 leukemia, 35.9 µM; in the experiment on SK-OV-3 ovarian, 52 µM; in the experiment with SNB-75 CNS, 56 µM; with SW-620 colon it was 23.1 µM. For the same compound, the TGI came to 10.7 µM with T-47D breast; 51.4 µM in the experiment with TK-10 renal; 13.2 µM in the experiment on U251 CNS; 21.2 µM in the experiment with UACC-257 melanoma; 26.6 µM with UO-31 renal.
With `O=C1c2ccccc2C(=O)C2NC(CCCCCSSCCCCCC3=NC4C(=O)c5ccccc5C(=O)C4N3)=NC12` (configuration not stated), the TGI in the experiment with ACHN renal, with HCT-15 colon, in the experiment on K-562 leukemia, in the experiment on M14 melanoma, with MCF7 breast and with NCI-H460 lung was greater than 100 µM throughout. Besides, the TGI in the experiment with OVCAR-8 ovarian, with RPMI-8226 leukemia, in the experiment on SK-OV-3 ovarian, in the experiment on SW-620 colon, in the experiment on T-47D breast and with TK-10 renal was greater than 100 µM each time. In addition, the TGI in the experiment on U251 CNS, in the experiment on UACC-257 melanoma and in the experiment with UO-31 renal was greater than 100 µM in each case.
Regarding `CC[C@]12C=CCN3CC[C@@]4(c5cc(Br)c(OC)c([N+](=O)[O-])c5N(C)[C@H]4[C@@](O)(C(=O)OC)[C@@H]1OC(C)=O)[C@@H]32`, the TGI in the experiment on ACHN renal, in the experiment with COLO 205 colon, in the experiment with HCT-15 colon, in the experiment with K-562 leukemia, in the experiment with M14 melanoma and in the experiment with MCF7 breast was greater than 100 µM throughout. Besides, the concentration for total growth inhibition (TGI) with NCI-H460 lung, in the experiment on OVCAR-8 ovarian, in the experiment on RPMI-8226 leukemia, in the experiment with SK-OV-3 ovarian, with SNB-75 CNS and with SW-620 colon was greater than 100 µM throughout. Besides, the TGI in the experiment with T-47D breast, in the experiment on TK-10 renal, in the experiment with U251 CNS, in the experiment on UACC-257 melanoma and in the experiment with UO-31 renal was greater than 100 µM each time.
In the case of `O=C1c2c(Br)sc(Br)c2C(NC(=O)C(F)(F)F)C1O` (configuration not stated), the TGI in the experiment with ACHN renal was 84.2 µM; in the experiment on COLO 205 colon it was 33.4 µM; in the experiment with HCC-2998 colon it was 32.6 µM; in the experiment with HCT-15 colon, 33.6 µM; in the experiment on K-562 leukemia it was greater than 100 µM; in the experiment on M14 melanoma, 48.2 µM. The TGI is 45.3 µM with MCF7 breast; 36 µM with NCI-H460 lung; 44.1 µM with OVCAR-8 ovarian; 36.4 µM with SK-OV-3 ovarian; greater than 100 µM with SNB-75 CNS; 40 µM in the experiment with SW-620 colon. Further, the total growth inhibition concentration (TGI) in the experiment with T-47D breast was 55.9 µM; with TK-10 renal, greater than 100 µM; in the experiment with U251 CNS, 37.4 µM; in the experiment with UACC-257 melanoma it was 36.4 µM; in the experiment on UO-31 renal, 56.7 µM.
Turning to `COc1cc(C(=O)NNC(=O)c2cc(Br)ccc2NC(=O)c2cccs2)cc(OC)c1OC`, the TGI in the experiment with ACHN renal amounted to 43.6 µM; in the experiment on COLO 205 colon, 25.5 µM; in the experiment with HCT-15 colon, 62.3 µM; in the experiment with K-562 leukemia, 11.9 µM; in the experiment on M14 melanoma, 59.8 µM; with MCF7 breast, 52.1 µM. Also, the TGI was 73.6 µM in the experiment with NCI-H460 lung; 59.9 µM with OVCAR-8 ovarian; 43.5 µM with RPMI-8226 leukemia; 36.5 µM in the experiment with SK-OV-3 ovarian; 24.6 µM in the experiment with SNB-75 CNS; greater than 100 µM in the experiment on SW-620 colon. For the same compound, the TGI in the experiment on T-47D breast was greater than 100 µM; in the experiment with TK-10 renal it was greater than 100 µM; with U251 CNS, 44.6 µM; in the experiment on UACC-257 melanoma, 56.9 µM; in the experiment with UO-31 renal, 50.2 µM.
